According to the supplement of paper PMC10307832:

Columns and labels:
Assay in all cases: relative viability (nuclei count vs DMSO), 5 days (fraction); higher = more cells survive
Erlotinib + Luminespib = compound: C#Cc1cccc(Nc2ncnc3cc(OCCOC)c(OCCOC)cc23)c1 [Erlotinib] + CCNC(=O)c1noc(-c2cc(C(C)C)c(O)cc2O)c1-c1ccc(CN2CCOCC2)cc1 [Luminespib] (partner 0.01 µM)
Summary of the method: (§1)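 For relative viability, nuclei counts in treated wells were divided by those in vehicle wells. Lung cancer cell lines had been pin-tool dosed in 1536-well plates the day after seeding and cultured for 5 days, then fixed and stained in one step (final 0.05% Triton X-100, 1% formaldehyde, 1 ug/ml Hoechst) and imaged at 4×. Doses were one drug alone or a fixed anchor-drug dose plus five library-drug doses (not always all listed) in √10 steps, and values are duplicate-plate medians.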

Erlotinib + AZD7762 = compound: C#Cc1cccc(Nc2ncnc3cc(OCCOC)c(OCCOC)cc23)c1 [Erlotinib] + NC(=O)Nc1cc(-c2cccc(F)c2)sc1C(=O)N[C@H]1CCCNC1 [AZD7762] (partner 0.2 µM)
Summary of the method: as §1

AT9283 + Luminespib = compound: O=C(Nc1c[nH]nc1-c1nc2ccc(CN3CCOCC3)cc2[nH]1)NC1CC1 [AT9283] + CCNC(=O)c1noc(-c2cc(C(C)C)c(O)cc2O)c1-c1ccc(CN2CCOCC2)cc1 [Luminespib] (partner 0.01 µM)
Summary of the method: as §1

AT9283 + Lapatinib = compound: O=C(Nc1c[nH]nc1-c1nc2ccc(CN3CCOCC3)cc2[nH]1)NC1CC1 [AT9283] + CS(=O)(=O)CCNCc1ccc(-c2ccc3ncnc(Nc4ccc(OCc5cccc(F)c5)c(Cl)c4)c3c2)o1 [Lapatinib] (partner 2 µM)
Summary of the method: as §1

AT9283 + Decitabine = compound: O=C(Nc1c[nH]nc1-c1nc2ccc(CN3CCOCC3)cc2[nH]1)NC1CC1 [AT9283] + Nc1ncn([C@H]2C[C@H](O)[C@@H](CO)O2)c(=O)n1 [Decitabine] (partner 2 µM)
Summary of the method: as §1

Cell Line	relative viability (Erlotinib + Luminespib; first compound 0.02 µM)	relative viability (Erlotinib + Luminespib; first compound 0.2 µM)	relative viability (Erlotinib + Luminespib; first compound 0.6325 µM)	relative viability (Erlotinib + Luminespib; first compound 2 µM)	relative viability (Erlotinib + AZD7762; first compound 0.02 µM)	relative viability (Erlotinib + AZD7762; first compound 0.2 µM)	relative viability (Erlotinib + AZD7762; first compound 0.6325 µM)	relative viability (Erlotinib + AZD7762; first compound 2 µM)	relative viability (AT9283 + Luminespib; first compound 0.003 µM)	relative viability (AT9283 + Luminespib; first compound 0.03 µM)	relative viability (AT9283 + Luminespib; first compound 0.09487 µM)	relative viability (AT9283 + Luminespib; first compound 0.3 µM)	relative viability (AT9283 + Lapatinib; first compound 0.003 µM)	relative viability (AT9283 + Lapatinib; first compound 0.03 µM)	relative viability (AT9283 + Lapatinib; first compound 0.09487 µM)	relative viability (AT9283 + Lapatinib; first compound 0.3 µM)	relative viability (AT9283 + Decitabine; first compound 0.003 µM)	relative viability (AT9283 + Decitabine; first compound 0.03 µM)	relative viability (AT9283 + Decitabine; first compound 0.09487 µM)	relative viability (AT9283 + Decitabine; first compound 0.3 µM)
201T	1.01	1.03	1.06	0.874	0.596	0.57	0.619	0.546	0.964	1	0.486	0.378	0.816	0.96	0.904	0.409	0.654	0.849	0.322	0.345
A549													1.02	0.0919	0.0686	0.0884	0.136	0.114	0.0516	0.05
A-427	1.18	0.932	0.857	0.76	0.735	0.763	0.843	0.767	0.822	0.486	0.319	0.176	0.936	0.897	0.671	0.219	0.6	0.494	0.239	0.248
ABC-1		0.684	0.771	0.601	0.789		0.647	0.507	0.579	0.246	0.275	0.189	0.938	1.19	0.476	0.46	1.3	0.513	0.346	0.346
BEN	0.369	0.34	0.442	0.693	0.554	0.824	0.843		0.28	0.336	0.198	0.107	0.582	0.546	0.158	0.243	0.52	0.557	0.347	0.347
CAL-12T	0.3	0.32	0.377	0.226	0.63	0.688	0.529	0.544	0.149	0.548	0.627	0.18	0.587	0.299	0.23	0.238				
COR-L23	0.686	0.637	0.693	0.588					0.73	0.27	0.151	0.165	1	0.12	0.129	0.172	0.385	0.304	0.169	0.168
COR-L 105	0.779	0.472	0.378	0.216					1.02	0.334	0.401	0.33	0.371	0.256	0.223	0.337	0.67	0.394	0.317	0.328
Calu-6													1.1	0.33	0.245	0.27				
ChaGo-K-1	0.635	0.541	0.604	0.505		0.922	0.845	0.76	0.63	0.422	0.289	0.26					0.483	0.523	0.26	0.222
EBC-1													0.217	0.178	0.208	0.182				
EKVX	0.833	0.615	0.444	0.207	0.686	0.693	0.423	0.219	0.874	0.836	0.555	0.307	0.241	0.188	0.128	0.108	0.38	0.246	0.234	0.215
EMC-BAC-2	1.12	1.06	1.19	1.03	1.1	1.08	1.26	1.04	1.21	0.358	0.318	0.289	0.875	0.599	0.229	0.225	0.992	0.496	0.338	0.321
EPLC-272H	0.176	0.233	0.326	0.196	0.205	0.209	0.21	0.202	0.332	0.246	0.133	0.149	0.854	0.975	0.319	0.137	0.379	0.395	0.185	0.161
H3255	0.768	0.531	0.326	0.295	0.794	0.619	0.516	0.238	0.713	0.905	0.969	0.254	0.22	0.258	0.173	0.159	0.577	0.556	0.352	0.222
HARA	0.784	0.417	0.586	0.255	0.385	0.383	0.333	0.259	0.755	0.189	0.0743	0.124	0.767	0.504	0.0806	0.0666	0.46	0.264	0.165	0.185
HCC-15	0.241	0.376	0.236	0.208	1.34	1.25	1.31	1.07	0.302	0.234	0.133	0.115	0.745	0.37	0.159	0.142	0.604	0.309	0.182	0.126
HCC-44	0.912	1.02	1.62	1.03	1.01	1.02	0.984	0.96	1.04	1.19	0.426	0.319	0.922	0.641	0.23	0.188	0.702	0.969	0.749	0.871
HCC-78					0.5	0.55	0.524	0.369					0.562	0.587	0.224	0.196	0.548	0.626	0.428	0.322
